In brackets after ≈: the same amount, converted by molar mass. Where two headings read alike, the source gives them in different places.
How the values were obtained:
HeLa cells = assay: in vitro cytotoxic activity, HeLa cells colony formation; format: cell-based, human; conditions: for IC50: HeLa, read-out: ID50 (dose giving 50% reduction of cell number in comparison with untreated controls)
Text: ^(a) Dose giving 50% reduction of cell number in comparison with […]

P388 leukemia cells = assay: in vitro cytotoxic activity, P388 cells colony formation; format: cell-based; conditions: for IC50: Mus musculus
Text: ^(a) Dose giving 50% reduction of cell number in comparison with
^(c) P388 leukemia cells.

[1] = test system: disseminated Gross leukemia; assay: in vivo antitumor activity against disseminated Gross leukemia; set-up: species or system C3H mice; conditions: for Toxic deaths (evaluated on the basis of autopsy findings on dead mice): C3H mice; for T/C % (median survival time of treated mice/median survival time of controls × 100): day after tumor injection, in parentheses: single experiments
Experimental: The "in vivo" antitumor activity, FCE 24883 (II) was tested against disseminated Gross leukemia. C3H mice were injected intravenously with 2.10^6 cell/mouse and treated with compounds under study 24 hours after the tumor injection.
^(a) C3H mice were injected i.v. with 2 × 10^6 leukemia
cells and treated i.v. with the compounds the day after the tumor
^(b) (Median survival time of treated mice/median survival time of
^(c) Evaluated on the basis of autopsy findings on dead mice.

solubility = format: physicochemical
experimental tumors = assay: activity on experimental tumors (general statement); conditions: in vivo
[2] = human cervix epithelioid carcinoma cells
[3] = P388 leukemia cells, read-out: ID50 (dose giving 50% reduction of cell number in comparison with untreated controls)

COc1cccc2c1C(=O)c1c(O)c3c(c(O)c1C2=O)C[C@@](O)(C(=O)CO)C[C@@H]3O[C@H]1C[C@H](N)[C@H](O)[C@H](C)O1 [DX, Doxorubicin]
IC50 (HeLa cells; Homo sapiens): 10.8 ng/mL (≈ 0.0199 µM)
IC50 (P388 leukemia cells; P388, read-out: ID50 (dose giving 50% reduction of cell number in comparison with untreated controls)): 8 ng/mL (≈ 0.0147 µM)
Toxic deaths (evaluated on the basis of autopsy findings on dead mice) ([1]; 10 mg/Kg i.v.): 0/20
T/C % (median survival time of treated mice/median survival time of controls × 100) ([1]; 10 mg/Kg i.v.): 200 (200, 200) %
Toxic deaths (evaluated on the basis of autopsy findings on dead mice) ([1]; 13 mg/Kg i.v.): 0/20
T/C % (median survival time of treated mice/median survival time of controls × 100) ([1]; 13 mg/Kg i.v.): 225 (230, 220) %
Toxic deaths (evaluated on the basis of autopsy findings on dead mice) ([1]; 16.9 mg/Kg i.v.): 2/20
T/C % (median survival time of treated mice/median survival time of controls × 100) ([1]; 16.9 mg/Kg i.v.): 250 (260, 240) %

COc1cccc2c1C(=O)c1c(O)c3c(c(O)c1C2=O)C[C@@](O)(C(=O)CO)C[C@@H]3O[C@H]1C[C@H](N)[C@H](I)[C@H](C)O1 [FCE 21954 (I), 4'-deoxy-4'-iododoxorubicin]
IC50 (HeLa cells; [2]): 10.4 ng/mL (≈ 0.0159 µM)
IC50 (P388 leukemia cells; [3]): 2.1 ng/mL (≈ 0.00321 µM)
Toxic deaths (evaluated on the basis of autopsy findings on dead mice) ([1]; 4 mg/Kg i.v.): 0/20
T/C % (median survival time of treated mice/median survival time of controls × 100) ([1]; 4 mg/Kg i.v.): 240 (240, 240) %
Toxic deaths (evaluated on the basis of autopsy findings on dead mice) ([1]; 5.2 mg/Kg i.v.): 4/20
T/C % (median survival time of treated mice/median survival time of controls × 100) ([1]; 5.2 mg/Kg i.v.): 260 (260, 260) %
Toxic deaths (evaluated on the basis of autopsy findings on dead mice) ([1]; 6.8 mg/Kg i.v.): 19/20
T/C % (median survival time of treated mice/median survival time of controls × 100) ([1]; 6.8 mg/Kg i.v.): 145 (160, 130) %

COc1cccc2c1C(=O)c1c(O)c3c(c(O)c1C2=O)C[C@@](O)([C@@H](O)CO)C[C@@H]3O[C@H]1C[C@H](N)[C@H](I)[C@H](C)O1 [FCE 24883 (II), 4'-deoxy-13(S)-dihydro-4'-iododoxorubicin]
cytotoxic activity, potency in comparison with compound I and doxorubicin (HeLa cells; HeLa cells, in vitro): as potent as 4'-deoxy-4'-iododoxorubicin (I) and doxorubicin
IC50 (HeLa cells; [2]): 8 ng/mL (≈ 0.0122 µM)
IC50 (P388 leukemia cells; [3]): 3.5 ng/mL (≈ 0.00534 µM)
cytotoxic activity, potency in comparison with compound I and doxorubicin (P388 leukemia cells; P388 cells, in vitro): as potent as 4'-deoxy-4'-iododoxorubicin (I) and doxorubicin
Toxic deaths (evaluated on the basis of autopsy findings on dead mice) ([1]; 4 mg/Kg i.v.): 0/10
T/C % (median survival time of treated mice/median survival time of controls × 100) ([1]; 4 mg/Kg i.v.): 180 (180) %
Toxic deaths (evaluated on the basis of autopsy findings on dead mice) ([1]; 5.2 mg/Kg i.v.): 0/20
T/C % (median survival time of treated mice/median survival time of controls × 100) ([1]; 5.2 mg/Kg i.v.): 220 (220, 220) %
Toxic deaths (evaluated on the basis of autopsy findings on dead mice) ([1]; 6.8 mg/Kg i.v.): 0/20
T/C % (median survival time of treated mice/median survival time of controls × 100) ([1]; 6.8 mg/Kg i.v.): 220 (220, 220) %
Toxic deaths (evaluated on the basis of autopsy findings on dead mice) ([1]; 8.8 mg/Kg i.v.): 5/9
T/C % (median survival time of treated mice/median survival time of controls × 100) ([1]; 8.8 mg/Kg i.v.): 140 (140) %
toxicity displayed ([1]; at the active doses): minor toxicity
antitumor potency in comparison with compound I ([1]; at the optimal dose): as potent as 4'-deoxy-4'-iododoxorubicin (I)
antitumor potency in comparison with doxorubicin ([1]; at the optimal dose): more potent than doxorubicin
antitumor activity, evaluated as median survival time of treated over control mice, in comparison with I and doxorubicin ([1]; mouse, in vivo): can be compared with those of I and doxorubicin
solubility of the free base (solubility; free base, polar organic solvents and aqueous alcohols): soluble in polar organic solvents and aqueous alcohols
solubility of the hydrochloride in organic solvents (solubility; hydrochloride, organic solvents): slighty soluble in organic solvents
solubility of the hydrochloride in water and lower alcohols (solubility; hydrochloride, water and lower alcohols): soluble in water and lower alcohols
activity on experimental tumors in comparison with compound I (experimental tumors): comparable with that of 4'-deoxy-4'-iododoxorubicin (I)
